Test results from US20260263480A1, “PHARMACEUTICAL COMPOSITION CONTAINING A DIPEPTIDYL PEPTIDASE SMALL MOLECULE INHIBITOR” (HAISCO PHARMACEUTICALS PTE. LTD., priority 2023, published 2026).

Columns and labels:
[1] = both, Sprague-Dawley (SD), rat, in vivo, 14 days
Description: The treatment group each includes 16 rats, and the vehicle control group includes 10 rats, with a half of male rats and a half of female rats. The drug at corresponding concentrations and the vehicle were administered to the rats through oral gavage daily for 14 consecutive days. The rats were allowed to recover for 7 days. During the administration period, general conditions, body weight and food intake were detected for each group. After the administration period and the recovery period, hematology test, serum biochemistry test and gross anatomical examination were performed for each group.

NE enzyme = settings: cited from earlier work
[2] = system: LPS-induced acute lung injury; settings: cited from earlier work

Compound: Cn1c(=O)oc2ccc(-c3ccc(C[C@@H](C#N)NC(=O)[C@@H]4CNCCCO4)c(F)c3)cc21 [Compound A, (S)—N—((S)-1-cyano-2-(2-fluoro-4-(3-methyl-2-oxo-2,3-dihydrobenzo[d]oxazol-5-yl)phenyl)ethyl)-1,4-oxazepane-2-carboxamide]
- Toxicity compared at the same dose [1]: less toxic than INS1007
- Inhibition of NE enzyme activity in rat bone marrow (NE enzyme): significantly inhibit NE enzyme activity in rat bone marrow
- Effect on LPS-induced acute lung injury in mice [2]: mitigate LPS-induced acute lung injury in mice
